Reference: PMC6246682, “Structural Basis of Tau Interaction With BIN1 and Regulation by Tau Phosphorylation” (Frontiers in Molecular Neuroscience, 2018)

Columns and labels:
BIN1 SH3 domain = biological target: T1, BIN1 SH3 domain (Homo sapiens, UniProt O00499); assay: NMR chemical shift perturbation titration, dissociation constant determination; type: binding; conditions: peptide/BIN1 SH3 molar ratios 0, 0.5, 1, 2, 4, 8 and 12; 1H-15N HSQC
T1 construct: The BIN1 isoform 1 and BIN1 SH3 domain were expressed and purified as previously described; made in house
T1 sequence (O00499 520-593 limits assumed): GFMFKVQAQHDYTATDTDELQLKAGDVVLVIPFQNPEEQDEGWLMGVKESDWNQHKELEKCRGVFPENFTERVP
Method: The weighted average chemical shift differences were calculated as described by [Garrett et al. (1997)] - i.e., (ΔH^2 + (ΔN×0.2)^2)^1/2, with ΔH and ΔN the chemical shift changes for ^1H and ^15N, respectively. Dissociation constants were obtained by fitting the chemical shift perturbation data to the following equation Δδobs = Δδmax(a + b + Kd−((a + b + Kd)^2−4ab)^1/2)/2a where Δδobs is the weighted average of the chemical shifts in the free and bound states and Δδmax is the maximal signal change upon saturation. Kd is the dissociation constant, a and b are the total peptide and BIN1 SH3 concentrations, respectively. Kd were averaged based on chemical shift perturbations of 7 distinct resonances.
Labeled resonances correspond to the major chemical shift perturbations, color coded as in Figure 4A. Enlarged regions of the superimposed spectra show 3 resonances involved in the interaction.
Det ail o f o ver la id 1H-15N HSQC spe ct ra o f BIN1 SH3 do ma in, in t he prese nce o f increa s ing a mo unt o f Tau(210-240) pept ide, mo lar rat io s pe pt ide/BIN1 SH3 0, 0.5, 1, 2, 4, 8 and 12 (co lo r sca le fro m purp le t o gray), o r o f p ho spho-Tau(210-240) pept ide, sa me mo lar rat ios (sa me co lo r sca le). A spect rum is reco rded fo r each t it rat io n po int . […]

BIN1 isoform 1 = assay: 1H-15N HSQC competition with intramolecular BIN1 SH3/CLAP interaction; type: binding; conditions: 1H-15N HSQC of BIN1 isoform 1 (0.08 mM), 20°C, 900 MHz, molar ratio 1:8
Method: NMR experiments were recorded on Bruker 950-MHz, 900-MHz, or 600-MHz spectrometers all equipped with a triple-resonance cryogenic probe. NMR measurements were performed in 50 mM sodium phosphate buffer, pH 7.3, 30 mM NaCl, 3 mM DTT and 10% D2O (NMR buffer). BIN1 SH3 domain backbone assignment has been previously reported ([Malki et al., 2017]). […] For side-chain assignment, additional 3D^15N NOESY-HSQC, 3D^15N-edited TOCSY, 3D (H)CCH TOCSY, and 3D H(C)CH TOCSY experiments were recorded. A 3D ^13C-edited NOESY was further used for side-chain assignment validation. All assignment experiments were recorded at 5°C. Chemical shift values (Supplementary Table S1) were directly transferred at 20°C, because the differences of chemical shift values were small between 5 and 20°C. […] BIN1 isoform 1 ^1H-^15N HSQC spectra were recorded at 20°C at 900 MHz (0.08 mM sample) with 3096 points (direct) and 280 points (indirect), for spectral width of 14 ppm and 26 ppm, respectively, and 256 scans. A 3D F1 ^13C/^15N-filtered and F3 ^15N-edited NOESY-HSQC, with WATERGATE (WATER suppression by GrAdient-Tailored Excitation) scheme ([Piotto et al., 1992]), named noesyhsqcf3gpwgx13d, part of the Bruker pulse sequence library, was recorded at 20°C at 950 MHz for the detection of intermolecular NOEs to amide groups. […] Spectra were processed using TopSpin software (Bruker) and analyzed by CcpNmr Analysis ([Vranken et al., 2005]).
As NMR is sensitive to mobility, this equilibrium translated into detection of BIN1 SH3 domain signals only upon its release from the intramolecular interaction ([Malki et al., 2017]). […] Consequently, in the presence of the phosphorylated Tau peptide (210–240), BIN1 SH3 domain remained immobilized by the intramolecular interaction with BIN1 isoform1 CLAP domain, mainly adopting the closed conformation.
(A) ^1H-^15N HSQC spectrum of BIN1 isoform 1 (112 KDa, homodimer). […] (B) ^1H-^15N HSQC spectra of BIN1 isoform 1 in the presence of phospho-Tau (210–240), molar ratio 1:8. The signals corresponding to the isolated BIN1 SH3 domain were barely detected.

Substance: phosphorylated Tau (210–240): Tau (210–240) phosphorylated by CDK2/CycA3; T212, T231, S235 full, T217 half-phosphorylated
- saturation / affinity in titration (BIN1 SH3 domain): lo wer a ffin it y
- competition with intramolecular BIN1 SH3/CLAP interaction (BIN1 isoform 1): not able to displace the intramolecular interaction of BIN1 SH3 with BIN1 CLAP domain
- competition with intramolecular BIN1 SH3/CLAP interaction (BIN1 isoform 1; listed as Phospho-Tau (210–240)): cannot compete with the intramolecular interaction of BIN1 SH3 with the CLAP domain
- competition with intramolecular BIN1 SH3/CLAP interaction (BIN1 isoform 1; listed as Tau (210–240) phosphorylated at four different sites (T212, T217, T231, and S235)): unable to compete with the intramolecular interaction of BIN1 SH3 domain with its CLAP domain
- competition with intramolecular BIN1 SH3/CLAP interaction (BIN1 isoform 1; listed as Tau (210–240) phosphorylated at multiple sites): not able to compete with the intra-molecular interaction of BIN1 SH3 with the CLAP domain as efficiently as its unphosphorylated counterpart
